Read-outs that look alike come from different tables or passages of the source.
Experiments:
Assay type in all cases: in vivo
[1] = tested on: dayflower (Virginia (VA) dayflower, Commelina virginica); assay: Test F pre-/postemergence plant response; details: Commelina virginica, scale 0 to 100, read-out: Plant response rating, Dayflower, VA
Summary of the method: (§1)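 Seeds were sown in silt loam and sprayed preemergence; in parallel, plants at 2–18 cm (1- to 4-leaf) received postemergence sprays. Test chemicals were in a non-phytotoxic solvent with surfactant. After 14–21 days in the greenhouse, injury was rated visually against controls on a 0–100 scale (100 = complete control).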

[2] = tested on: green foxtail (Setaria viridis); assay: Test F pre-/postemergence plant response; details: Setaria viridis, pre-emergence, Preemergence, scale 0 to 100, read-out: Plant response rating, Foxtail, Green
Summary of the method: as §1

[3] = tested on: arrowleaf sida (Sida rhombifolia); assay: Test F pre-/postemergence plant response; details: Sida rhombifolia, scale 0 to 100, read-out: Plant response rating, Arrowleaf Sida
Summary of the method: as §1

[4] = tested on: barnyardgrass (Echinochloa crus-galli); assay: Test F pre-/postemergence plant response; details: Echinochloa crus-galli, scale 0 to 100, read-out: Plant response rating, Barnyardgrass
Summary of the method: as §1

[5] = tested on: lambsquarters (Chenopodium album); assay: Test F pre-/postemergence plant response; details: Chenopodium album, pre-emergence, Preemergence, scale 0 to 100, read-out: Plant response rating, Lambsquarters
Summary of the method: as §1

[6] = tested on: johnsongrass (Sorghum halepense); assay: Test F pre-/postemergence plant response; details: Sorghum halepense, pre-emergence, scale 0 to 100, read-out: Plant response rating, Johnsongrass
Summary of the method: as §1

[7] = tested on: palmer pigweed (Amaranthus palmeri); assay: Test F pre-/postemergence plant response; details: Amaranthus palmeri, scale 0 to 100, read-out: Plant response rating, Pigweed, Palmer
Summary of the method: as §1

[8] = tested on: morningglory (Ipomoea coccinea); assay: Test F pre-/postemergence plant response; details: Ipomoea, pre-emergence, scale 0 to 100, read-out: Plant response rating, Morningglory
Summary of the method: as §1

[9] = tested on: giant foxtail (Setaria faberii); assay: Test F pre-/postemergence plant response; details: Setaria faberi, pre-emergence, scale 0 to 100, read-out: Plant response rating, Foxtail, Giant
Summary of the method: as §1

[10] = tested on: waterhemp (common waterhemp, Amaranthus rudis); assay: Test F pre-/postemergence plant response; details: Amaranthus tuberculatus, scale 0 to 100, read-out: Plant response rating, Waterhemp
Summary of the method: as §1

[11] = tested on: sandbur (southern sandbur, Cenchrus echinatus); assay: Test F pre-/postemergence plant response; details: Cenchrus echinatus, scale 0 to 100, read-out: Plant response rating, Sandbur
Summary of the method: as §1

[12] = tested on: barnyardgrass (Echinochloa crus-galli); assay: Test D flooded paddy test plant response; details: Flood (flooded paddy test), visual rating on scale 0 to 100 (0 no effect, 100 complete control), 13 to 15 days
Summary of the method: (§2)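 Plants at 2-leaf stage in pots flooded 3 cm above soil; compounds applied directly into paddy water, depth kept throughout. After 13-15 days in greenhouse, visual rating against controls on 0-100 scale (100 = complete control).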

rice (Oryza sativa) = assay: Test D flooded paddy test plant response; details: Flood (flooded paddy test), visual rating on scale 0 to 100 (0 no effect, 100 complete control), 13 to 15 days
Summary of the method: as §2

[13] = tested on: small-flower umbrella sedge (Cyperus difformis); assay: Test D flooded paddy test plant response; details: Flood (flooded paddy test), visual rating on scale 0 to 100 (0 no effect, 100 complete control), 13 to 15 days
Summary of the method: as §2

[14] = tested on: ducksalad (Heteranthera limosa); assay: Test D flooded paddy test plant response; details: Flood (flooded paddy test), visual rating on scale 0 to 100 (0 no effect, 100 complete control), 13 to 15 days
Summary of the method: as §2

[15] = post-emergence, 31 g ai/ha Postemergence
[16] = pre-emergence, 31 g ai/ha Preemergence
[17] = pre-emergence, 62 g ai/ha Preemergence
[18] = post-emergence, 62 g ai/ha Postemergence

With `Fc1cccc(Oc2ncc(Cl)cn2)c1-c1cc(C(F)F)on1` [Compound 55, 5-chloro-2-[2-[5-(difluoromethyl)-3-isoxazolyl]-3-fluorophenoxy]pyrimidine] the pest or weed control at 31 g/ha [1, 15] was 70%, the pest or weed control at 31 g/ha [1, 16] was 60% and the pest or weed control at 62 g/ha [1, 17] was 40%. For the same compound, the pest or weed control at 31 g/ha ([2]; 31 g ai/ha) was 20%, the pest or weed control at 62 g/ha [2] was 70% and the pest or weed control at 31 g/ha [3, 15] was 95%. The pest or weed control at 62 g/ha [3, 18] was 100%, the pest or weed control at 31 g/ha [3, 16] was 98% and the pest or weed control at 62 g/ha [3, 17] was 100%. For the same compound, the pest or weed control at 31 g/ha [4, 15] was 50%, the pest or weed control at 62 g/ha [4, 18] was 35% and the pest or weed control at 31 g/ha [4, 16] was 10%. The pest or weed control at 62 g/ha [4, 17] was 85%, the pest or weed control at 31 g/ha ([5]; 31 g ai/ha) was 100% and the pest or weed control at 62 g/ha [5] was 100%. For the same compound, the pest or weed control at 31 g/ha ([6]; 31 g ai/ha Preemergence) was 20%, the pest or weed control at 62 g/ha ([6]; Preemergence) was 90% and the pest or weed control at 31 g/ha [7, 15] was 98%. It also gave a pest or weed control at 62 g/ha [7, 18] of 98%, a pest or weed control at 31 g/ha [7, 16] of 75% and a pest or weed control at 62 g/ha ([7]; pre-emergence, Preemergence) of 100%. For the same compound, the pest or weed control at 31 g/ha ([8]; 31 g ai/ha Preemergence) was 30%, the pest or weed control at 62 g/ha ([8]; Preemergence) was 98% and the pest or weed control at 31 g/ha ([9]; 31 g ai/ha Preemergence) was 90%. It also gave a pest or weed control at 62 g/ha ([9]; 62 g ai/ha Preemergence) of 98%, a pest or weed control at 31 g/ha [10, 15] of 90% and a pest or weed control at 62 g/ha [10, 18] of 100%. It also gave a pest or weed control at 31 g/ha [10, 16] of 100%, a pest or weed control at 62 g/ha ([10]; pre-emergence, Preemergence) of 100% and a pest or weed control at 31 g/ha [11, 15] of 25%. The pest or weed control at 62 g/ha [11, 18] was 15%, the pest or weed control at 31 g/ha [11, 16] was 0% and the pest or weed control at 62 g/ha ([11]; pre-emergence, Preemergence) was 0%. For the same compound, the “Plant response rating, Barnyardgrass” value ([12]; 31 g ai/ha) was 0, the “Plant response rating, Barnyardgrass” value ([12]; 62 g ai/ha) was 0 and the “Plant response rating, Barnyardgrass” value ([12]; 125 g ai/ha) was 10. For the same compound, the “Plant response rating, Barnyardgrass” value ([12]; 250 g ai/ha) was 30, the “Plant response rating, Rice” value (rice (Oryza sativa); 31 g ai/ha) was 0 and the “Plant response rating, Rice” value (rice (Oryza sativa); 62 g ai/ha) was 0. The “Plant response rating, Rice” value (rice (Oryza sativa); 125 g ai/ha) was 0, the “Plant response rating, Rice” value (rice (Oryza sativa); 250 g ai/ha) was 0 and the “Plant response rating, Sedge, Umbrella” value ([13]; 31 g ai/ha) was 75. The “Plant response rating, Sedge, Umbrella” value ([13]; 62 g ai/ha) was 75, the “Plant response rating, Sedge, Umbrella” value ([13]; 125 g ai/ha) was 85 and the “Plant response rating, Sedge, Umbrella” value ([13]; 250 g ai/ha) was 100. For the same compound, the “Plant response rating, Ducksalad” value ([14]; 31 g ai/ha) was 75, the “Plant response rating, Ducksalad” value ([14]; 62 g ai/ha) was 80 and the “Plant response rating, Ducksalad” value ([14]; 125 g ai/ha) was 85. The “Plant response rating, Ducksalad” value ([14]; 250 g ai/ha) was 90.
